Results: patent US8236810B2, “Substituted 8-aminoalkylthioxanthines, and their use as inhibitors of dipeptidyl peptidase IV” (Sanofi-Aventis Deutschland GmbH, priority 2004, dated 2012)
pIC50: −log10 of the molar value. Structures can show the parent of a compound that is named as a salt.

Molecular target: T1, DPP-IV from porcine kidney (Sus scrofa, UniProt P22411)
T1 construct: DPP-IV from porcine kidney (Sigma Chemical Co, Munich DE); purchased Sigma Chemical Co, Munich DE; host or cells: porcine kidney (tissue-derived)
Test: Measurement of the DPP-IV activity (fluorimetric H-Ala-Pro-AFC conversion)
Type: biochemical
Details: substrate H-Ala-Pro-AFC 15 μM, DPP-IV 1 mU/ml, Tris/HCl pH 7.4, room temperature
Procedure: a) Measurement of the DPP-IV Activity:
DPP-IV from porcine kidney (Sigma Chemical Co, Munich DE)
H-Ala-Pro-AFC (Bachem Chemical Co, Weil am Rhein DE)
Dipeptidyl peptidase-IV (DPP-IV) (1 mU/ml, final concentration)
H-Ala-Pro-AFC (15 μM, final concentration) in Tris/HCl (40 mM, pH 7.4), total volume 0.2 ml
The reaction was carried out at room temperature for various times (typically 10 min) and stopped at the end of the reaction by adding 20 μl of ZnCl2(1M). The H-Ala-Pro-AFC conversion was determined fluorimetrically by measuring the emission at 535 nm after excitation at 405 nm. When inhibitors were added, the added buffer volume was adapted so that a total volume of 200 μl was maintained for the assay mixture.
IC50 values for inhibitors were determined by varying the inhibitor concentrations with the stated substrate concentration of 15 μM. Ki and Km values were found by appropriate variation of substrate concentration and inhibitor concentration as described (Dixon, M. and Webb, E. C.(1979) Enzymes, third edition, pp. 47-206, Academic Press). The values for Km, IC50 and Ki were calculated using a commercially available software package (Leatherbarrow, R. J. (1992) GraFit Version 3.0, Erithacus Software Ltd. Staines, U.K.).

T1 sequence (P22411 whole entry): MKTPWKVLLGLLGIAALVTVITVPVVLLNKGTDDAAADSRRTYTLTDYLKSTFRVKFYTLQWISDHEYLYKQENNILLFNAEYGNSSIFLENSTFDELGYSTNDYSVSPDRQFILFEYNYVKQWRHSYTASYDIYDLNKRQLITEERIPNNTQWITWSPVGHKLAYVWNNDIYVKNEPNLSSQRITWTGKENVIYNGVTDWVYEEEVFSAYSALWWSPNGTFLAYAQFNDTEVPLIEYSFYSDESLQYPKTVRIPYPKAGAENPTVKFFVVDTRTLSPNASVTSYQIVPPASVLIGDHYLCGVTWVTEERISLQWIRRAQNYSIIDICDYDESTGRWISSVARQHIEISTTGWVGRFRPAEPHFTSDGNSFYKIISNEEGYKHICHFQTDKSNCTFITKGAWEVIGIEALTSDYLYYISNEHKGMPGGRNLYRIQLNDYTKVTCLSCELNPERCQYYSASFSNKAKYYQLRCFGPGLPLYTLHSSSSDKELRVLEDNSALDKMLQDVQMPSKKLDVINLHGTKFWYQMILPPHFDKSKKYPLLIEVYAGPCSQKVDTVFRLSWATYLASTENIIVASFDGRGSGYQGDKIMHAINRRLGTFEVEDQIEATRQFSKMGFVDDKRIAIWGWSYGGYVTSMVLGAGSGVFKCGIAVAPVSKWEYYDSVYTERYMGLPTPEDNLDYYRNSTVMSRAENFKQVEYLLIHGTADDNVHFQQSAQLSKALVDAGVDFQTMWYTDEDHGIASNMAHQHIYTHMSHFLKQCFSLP

Row | pIC50 | Compound
1 | 7.68 | CC(C)=CCn1c(SC(C)(C)CN)nc2c1c(=O)n(CC(=O)c1ccccc1)c(=O)n2CC(F)(F)F [Example 36, 8-(2-Amino-1,1-dimethylethylsulfanyl)-7-(3-methylbut-2-enyl)-1-(2-oxo-2-phenylethyl)-3-(2,2,2-trifluoroethyl)-3,7-dihydropurine-2,6-dione]
2 | 7.80 | CC(C)=CCn1c(SC(C)(C)CN)nc2c1c(=O)n(CC(=O)c1ccccc1Cl)c(=O)n2C [Example 42, 8-(2-Amino-1,1-dimethylethylsulfanyl)-1-[2-(2-chlorophenyl)-2-oxoethyl]-3-methyl-7-(3-methylbut-2-enyl)-3,7-dihydropurine-2,6-dione]
3 | 7.52 | CC(C)=CCn1c(SC(C)(C)CN)nc2c1c(=O)n(CC(=O)c1cccc(Cl)c1)c(=O)n2C [Example 43, 8-(2-Amino-1,1-dimethylethylsulfanyl)-1-[2-(3-chlorophenyl)-2-oxoethyl]-3-methyl-7-(3-methylbut-2-enyl)-3,7-dihydropurine-2,6-dione]
4 | 7.85 | Cn1c(=O)n(CC(=O)c2ccccc2)c(=O)c2c1nc(SC1(CN)CCCC1)n2Cc1ccccc1 [Example 63, 8-(1-Aminomethylcyclopentylsulfanyl)-7-benzyl-3-methyl-1-(2-oxo-2-phenyl-ethyl)-3,7-dihydropurine-2,6-dione trifluoroacetate]
5 | 8.15 | CC(C)=CCn1c(SC2(CN)CCCC2)nc2c1c(=O)n(CC(=O)c1ccccc1)c(=O)n2C [Example 64, 8-(1-Aminomethylcyclopentylsulfanyl)-3-methyl-7-(3-methylbut-2-enyl)-1-(2-oxo-2-phenylethyl)-3,7-dihydropurine-2,6-dione trifluoroacetate]

Further lines, the molecule ahead of its results:

Row | Compound | pIC50
6 | CC(C)=CCn1c(SC(C)(C)CN)nc2c1c(=O)n(CC(=O)c1ccccc1)c(=O)n2C [Example 1, 8-(2-Amino-1,1-dimethylethylsulfanyl)-3-methyl-7-(3-methylbut-2-enyl)-1-(2-oxo-2-phenylethyl)-3,7-dihydropurine-2,6-dione] | 8.77
7 | CC(C)=CCn1c(SCCN)nc2c1c(=O)n(CC(=O)c1ccccc1)c(=O)n2C [Example 3, 8-(2-Aminoethylsulfanyl)-3-methyl-7-(3-methylbut-2-enyl)-1-(2-oxo-2-phenylethyl)-3,7-dihydropurine-2,6-dione] | 7.14
8 | CC(C)=CCn1c(SC(C)(C)CN)nc2c1c(=O)[nH]c(=O)n2C [Example 5, 8-(2-Amino-1,1-dimethylethylsulfanyl)-3-methyl-7-(3-methylbut-2-enyl)-3,7-dihydropurine-2,6-dione] | 7.08
9 | CC(C)=CCn1c(SCC(C)(C)N)nc2c1c(=O)n(CC(=O)c1ccccc1)c(=O)n2C [Example 10, 8-(2-Amino-2-methylpropylsulfanyl)-3-methyl-7-(3-methylbut-2-enyl)-1-(2-oxo-2-phenylethyl)-3,7-dihydropurine-2,6-dione] | 6.92
10 | CC(C)=CCn1c(SC(C)(C)CN)nc2c1c(=O)n(Cc1nnc(C3CC3)s1)c(=O)n2C [Example 12, 8-(2-Amino-1,1-dimethylethylsulfanyl)-1-(5-cyclopropyl-[1,3,4]thiadiazol-2-ylmethyl)-3-methyl-7-(3-methylbut-2-enyl)-3,7-dihydropurine-2,6-dione] | 7.05
11 | CC(C)=CCn1c(SC(C)(C)CN)nc2c1c(=O)n(Cc1nc3cc(F)ccc3s1)c(=O)n2C [Example 19, 8-(2-Amino-1,1-dimethylethylsulfanyl)-1-(5-fluorobenzothiazol-2-ylmethyl) -3-methyl-7-(3-methylbut-2-enyl)-3,7-dihydropurine-2,6-dione] | 7.62
12 | CC(C)=CCn1c(SC(C)(C)CN)nc2c1c(=O)n(Cc1cc(C)on1)c(=O)n2C [Example 21, 8-(2-Amino-1,1-dimethylethylsulfanyl)-3-methyl-7-(3-methylbut-2-enyl)-1-(5-methylisoxazol-3-ylmethyl)-3,7-dihydropurine-2,6-dione hydrochloride] | 6.77
13 | CCn1c(=O)n(CC(=O)c2ccccc2)c(=O)c2c1nc(SC(C)(C)CN)n2CC=C(C)C [Example 23, 8-(2-Amino-1,1-dimethylethylsulfanyl)-3-ethyl-7-(3-methylbut-2-enyl)-1-(2-oxo-2-phenylethyl)-3,7-dihydropurine-2,6-dione] | 8.35
14 | CC(C)=CCn1c(SC(C)(C)CN)nc2c1c(=O)n(CC(=O)c1ccccc1)c(=O)n2C1CC1 [Example 24, 8-(2-Amino-1,1-dimethylethylsulfanyl)-3-cyclopropyl-7-(3-methylbut-2-enyl) -1-(2-oxo-2-phenylethyl)-3,7-dihydropurine-2,6-dione] | 8.03
15 | CC(C)=CCn1c(SC(C)(C)CN)nc2c1c(=O)n(CCc1ccccc1)c(=O)n2C1CC1 [Example 25, 8-(2-Amino-1,1-dimethylethylsulfanyl)-3-cyclopropyl-7-(3-methylbut-2-enyl) -1-phenethyl-3,7-dihydropurine-2,6-dione] | 7.32
16 | CC#CCn1c(SC(C)(C)CN)nc2c1c(=O)n(CC(=O)c1ccccc1)c(=O)n2C [Example 26, 8-(2-Amino-1,1-dimethylethylsulfanyl)-7-but-2-ynyl-3-methyl-1-(2-oxo-2-phenylethyl)-3,7-dihydropurine-2,6-dione] | 7.57
